SMILES strings stand for the structures. pIC50: −log10 of the molar value.

In the first assay the target is T1, squalene synthetase (Rattus norvegicus, UniProt Q02769).
T1 construct: The brown outer microsomal layer is carefully removed with a spatula and placed in a beaker on ice; from tissue; host or cells: liver microsomes of male Sprague-Dawley rats (105,000 g pellet, washed, not purified)
T1 sequence (Q02769 1-416): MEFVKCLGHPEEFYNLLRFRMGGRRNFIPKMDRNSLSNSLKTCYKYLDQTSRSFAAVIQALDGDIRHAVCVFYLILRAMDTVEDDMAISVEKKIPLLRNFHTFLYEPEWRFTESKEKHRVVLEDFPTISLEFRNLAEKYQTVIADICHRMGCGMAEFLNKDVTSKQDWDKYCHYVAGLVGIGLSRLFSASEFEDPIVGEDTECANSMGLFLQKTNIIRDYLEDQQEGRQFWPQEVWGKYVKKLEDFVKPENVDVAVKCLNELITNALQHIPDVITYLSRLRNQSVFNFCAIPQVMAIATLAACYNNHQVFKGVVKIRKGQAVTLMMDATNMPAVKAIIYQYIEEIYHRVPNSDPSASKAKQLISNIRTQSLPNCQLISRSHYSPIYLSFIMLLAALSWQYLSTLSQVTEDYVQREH
In words: Squalene Synthetase Inhibition Assay (SQ SYN). It counts as biochemical, rat (Sprague-Dawley). The conditions noted are these: rat liver microsomes, 10 μM 3H-FPP, 0.5 mM β-NADPH, pH 7.5, 10 min preincubation and 10 min incubation, 37° C. The source says: These tests involve such factors as the effect of the compounds of Formula I to inhibit squalene synthesis.
Squalene Synthetase Inhibition Assay
The squalene synthetase assay used is a modification of the procedures described by Popjak (1969) and Poulter et al. (1989):
Popjak, G. Enzymes of sterol biosynthesis in liver and intermediates of sterol biosynthesis. Meth. Enzymol. 15: 393-454, 1969.
Poulter, C. D., Capson, T. L., Thompson, M. D. and Bard R. S. Squalene synthetase. Inhibition by ammonium analogues of carbocationic intermediates in the conversion of presqualene diphosphate to squalene. J. Am. Chem. Soc. 111: 3734-3739, 1989.
I. Animal Source and Tissue Preparation
Four male Sprague-Dawley rats weighing 100-120 gms are fed a low cholesterol rodent diet (#5012) obtained from Purina Mills, Inc. in Richmond, Ind.; and housed under reverse-light. Water is given ad lib. Rats are lightly anesthetized with ether and then decapitated. Livers are removed and enzymes are separated by the method described below.
All Chemicals are "A.C.S." in purity or better unless noted;
AquaSol®-2 scintillation fluid (NEF-952) (Du Pont/NEN Research Products, Boston, Mass.);
Anhydrous MgCl2 (M-8266), β-NADPH tetrasodium salt, reduced form (N-1630), Bovine serum albumin (A-6003), Cholesterol (C-8503);
Squalene (S-3626), (Sigma Chemical Co., St. Louis, Mo.);
Bio-Rad protein assay dye concentrate (Bio-Rad Laboratories, Richmond, Calif.);
Denatured ethanol, DMSO, HCl (1N), KOH, methanol, NaOH (0.1N, 1N), petroleum ether (M-280 grade), potassium phosphate dibasic, 2-propanol (Fisher Scientific, Pittsburgh, Pa.);
Zero grade nitrogen gas mixture (certified analysis) (Woodland Oxygen & Supply Co., Philadelphia, Pa.).
[1-^3 H(N)]-FPP, triammonium salt (NET-1042), (Du Pont/NEN, Boston, Mass.);
Non-radiolabeled FPP is prepared in-house. The solid FPP is aliquoted and stored at -80° C. FPP is dissolved in 70% ethanol/30% 0.25M NH4 HCO3 at the concentration of 10 mM and the solution is aliquoted (200 μl each) and stored at -80° C.
III. Preparation of Assay Substances
Test solutions are prepared fresh in 100% DMSO or dH2 O. Subsequent dilutions are made in the same solvent. Compounds are tested initially at 1 or 10 μM (final concentrations).
Potassium phosphate (50 mM, 8.71 g/l) pH 7.5 stock buffer is prepared and stored at 4° C. until use. Anhydrous MgCl2 is added to the phosphate buffer on the day of assay for a final concentration of 10 mM (95 mg/100 ml). The buffer is flushed with N2 before use.
Non-radiolabeled FPP is diluted to 50 μM (100 μl 10 mM cold FPP+19.9 ml phosphate buffer). Then, 14 μl (20×10^6 dpm) of ^3 H-FPP (0.5 mCi/ml, 0.011 mg/ml) is added. 200 μl of this mixture is added per assay tube for a final reaction concentration of 10 μM FPP (~200,000 dpm/assay tube).
37.5 mg of β-NADPH is added to 9 ml assay buffer for a 5 mM concentration of β-NADPH. The mixture is vortexed and 100 μl of this solution is added to each tube for a final assay concentration of 0.5 mM β-NADPH.
75 gm of KOH is dissolved in 500 ml of denatured ethanol for a 15% solution and stored at 0° C. until use. 1 ml of this solution is added per tube to terminate the reaction.
IV. Experimental Procedure
Immediately following decapitation, livers are removed one at a time from four rats. The livers are combined and weighed in a tared beaker. Assay buffer is added equal to three times the liver weight. The liver is first homogenized with a blender for thirty seconds, and then by a motor driven teflon pestle at a speed of 2.5. During homogenization, the liver is kept on ice. When the liver is fully homogenized, the homogenate is centrifuged at 10,000 g for 30 min at 4° C. in 50 ml capacity centrifuge tubes. The mitochondrial pellet is discarded and the supernatant is filtered through a layer of gauze moistened with a little buffer. This supernatant is recentrifuged at 105,000 g for one hour at 0° C. in an ultracentrifuge in 25 ml capacity ultracentrifuge tubes. […]
As usually defined, the pIC50 is −log10 of the IC50, conventionally taken in molar units. High values mean a low IC50, low ones a high IC50. As to `O=P(O)(O)C(O)(CCN1CCCC2CCCCC21)P(=O)(O)O` (centres unmarked), the pIC50 is 7.72.

With `O=P(O)(O)C(O)(CCN1CC2CCC(CC2)C1)P(=O)(O)O`, the pIC50 is 7.80. The pIC50 values of the last two compounds are within 0.2 log units of each other.

For `O=P(O)(O)C(O)(CCN1CCCCC1)P(=O)(O)O`, the pIC50 was 6.14. Compared with the last compound, the pIC50 is 1.66 log units lower.

In turn, `O=P(O)(O)C(O)(CCN1CCCCCC1)P(=O)(O)O` had a negative-log IC50 (pIC50) of 6.89. This pIC50 lies 0.75 log units higher than the previous one.

On to `O=P(O)(O)C(O)(CCNC1CCN(Cc2ccccc2)CC1)P(=O)(O)O`, for which the pIC50 is 5.64.

`O=P(O)(O)C(O)(CCN1CCC2(CCCCC2)CC1)P(=O)(O)O`: the pIC50 was 6.41.

Take `O=P(O)(O)C(O)(CCNC1CCc2ccccc21)P(=O)(O)O` (centres unmarked): the pIC50 was 7.22. This pIC50 lies 0.81 log units higher than the previous one.

Take `CC1(C)CC2CC(C)(CN2CCC(O)(P(=O)(O)O)P(=O)(O)O)C1` (centres unmarked): the pIC50 was 5.30.

As for `O=P(O)(O)C(O)(CCNC1CCCc2ccccc21)P(=O)(O)O` (centres unmarked), the pIC50 was 6.89.

`O=P(O)(O)C(O)(CCNC1CC2CCC1C2)P(=O)(O)O` (centres unmarked) showed a pIC50 of 6.22.

`O=P(O)(O)C(O)(CCNCC1CCCCCC1)P(=O)(O)O` had a pIC50 of 5.84.

With `O=P(O)(O)C(O)(CCNC1C2CC3CC(C2)CC1C3)P(=O)(O)O` (centres unmarked), the negative-log IC50 (pIC50) was 6.36.

Compound `O=P(O)(O)C(O)(CCN1CCC(c2ccccc2)CC1)P(=O)(O)O` had a pIC50 of 6.43. This pIC50 and that of the compound before are within 0.2 log units of each other.

The subject of a further assay is 1,4-condensation between isopentenyl diphosphate and geranyl diphosphate.
Test: not given
To be noted: J. Am. Chem. Soc., 1987, 109, 5544; cited from earlier work.
As to `C=C(C)CCCP(=O)(O)CP(=O)(O)O`, the “inhibition of the 1,4-condensation (in words)” value was “competitive inhibitors”.

These data come from US5317015A, “Azacyclic bisphosphonates as anticholesterolemic agents” (Rhone-Poulenc Rorer Pharmaceuticals Inc., priority 1992, dated 1994).
